Test results taken from publication PMC3297363 (Journal of Medicinal Chemistry, 2012).
pIC50: −log10 of the molar value. Like-named read-outs stand apart in the source and are kept apart here.

Experiments:
[1] = tested on: 3D7 strain of P. falciparum; test: In vitro antimalarial activity versus 3D7 P. falciparum; type: cell-based, Plasmodium falciparum
PfNDH2 = target: T1, PfNDH2 (Plasmodium falciparum, UniProt Q8I302); type: biochemical; conditions: PfNDH2 enzyme
T1 sequence (Q8I302 1-533): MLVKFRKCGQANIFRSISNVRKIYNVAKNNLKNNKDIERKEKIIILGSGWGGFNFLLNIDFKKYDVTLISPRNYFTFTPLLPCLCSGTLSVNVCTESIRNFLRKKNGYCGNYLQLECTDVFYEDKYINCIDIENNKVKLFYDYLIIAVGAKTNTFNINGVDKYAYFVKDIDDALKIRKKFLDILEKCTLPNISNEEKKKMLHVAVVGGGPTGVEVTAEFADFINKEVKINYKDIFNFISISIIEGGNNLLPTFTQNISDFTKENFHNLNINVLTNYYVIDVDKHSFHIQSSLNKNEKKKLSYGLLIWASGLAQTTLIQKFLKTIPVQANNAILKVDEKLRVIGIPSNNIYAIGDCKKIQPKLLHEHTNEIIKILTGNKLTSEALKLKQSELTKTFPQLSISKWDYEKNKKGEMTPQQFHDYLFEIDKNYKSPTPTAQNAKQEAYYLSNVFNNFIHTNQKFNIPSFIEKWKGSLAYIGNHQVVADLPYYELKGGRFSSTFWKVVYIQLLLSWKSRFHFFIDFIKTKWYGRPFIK

[2] = tested on: TM90C2B strain of P. falciparum; test: In vitro antimalarial activity versus atovaquone resistant TM90C2B; type: cell-based; conditions: Plasmodium falciparum, read-out: IC50 in TM90C2B strain

Question: For `COc1cccc2[nH]c(-c3ccc(Cc4ccc(OC(F)(F)F)cc4)cc3)c(C)c(=O)c12` [6m], which IC50 ([1]; Plasmodium falciparum, 3D7, read-out: IC50 (nM) 3D7 ± SD, 3D7 strain of P. falciparum, in vitro) is on record?
Answer: Its IC50 is over 350 nM.

Question: `COc1ccc(Cc2ccc(-c3[nH]c4ccccc4c(=O)c3C)cc2)cc1` [6g] was tested. Which IC50 ([1]; read-out: IC50 (nM) 3D7 ± SD, 3D7 strain of P. falciparum, in vitro) did it give?
Answer: Its IC50 is 37 nM.

Question: Which “IC50 (nM) PfNDH2” value (PfNDH2) does the source give for `O=c1c(-c2ccc(Oc3ccc(OC(F)(F)F)cc3)cc2)c(CO)[nH]c2ccccc12` [compound 25] here?
Answer: The value was “shows no PfNDH2”.

Question: With `O=C1C(O)=C([C@H]2CC[C@H](c3ccc(Cl)cc3)CC2)C(=O)c2ccccc21` [atovaquone] as the compound, how does the pIC50 [2] read?
Answer: The pIC50 was 4.92.
